According to PubChem BioAssay AID2060483 (Molecular Pharmacology Branch, DTP, NCI, 2025):
Values belong to the molecule of their own block, whether it stands above or below them.

System: K24384-001-R-PDC complex spheroids, viability
Experiment: Anticancer human tumor K24384-001-R-PDC patient-derived pancreatic adenocarcinoma cell line growth inhibition [GQUAD]
Conditions: for IC50: curve of first compound; for viability, T/C: stronger effect = lower value
In short: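 Multi-cell-type spheroids of tumor cells with HUVEC and mesenchymal stem cells, treated with drug combinations. Concentrations descend in half-log steps from near clinical Cmax, or from 10 microM where Cmax is unknown; viability read-out.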

[1] = second compound 0.0316 µM, first compound 0.0316 µM
[2] = second compound 0.0316 µM, first compound 0.1 µM
[3] = second compound 0.0316 µM, first compound 0.316 µM
[4] = second compound 0.0316 µM, first compound 1 µM
[5] = second compound 0.0316 µM, first compound 3.16 µM
[6] = second compound 0.0316 µM, first compound 10 µM
[7] = second compound 0.1 µM, first compound 0.0316 µM
[8] = second compound 0.1 µM, first compound 0.1 µM
[9] = second compound 0.1 µM, first compound 0.316 µM
[10] = second compound 0.1 µM, first compound 1 µM
[11] = second compound 0.1 µM, first compound 3.16 µM
[12] = second compound 0.1 µM, first compound 10 µM
[13] = second compound 0.316 µM, first compound 0.0316 µM
[14] = second compound 0.316 µM, first compound 0.1 µM
[15] = second compound 0.316 µM, first compound 0.316 µM
[16] = second compound 0.316 µM, first compound 1 µM
[17] = second compound 0.316 µM, first compound 3.16 µM
[18] = second compound 0.316 µM, first compound 10 µM
[19] = second compound 1 µM, first compound 0.0316 µM
[20] = second compound 1 µM, first compound 0.1 µM
[21] = second compound 1 µM, first compound 0.316 µM
[22] = second compound 1 µM, first compound 1 µM
[23] = second compound 1 µM, first compound 3.16 µM
[24] = second compound 1 µM, first compound 10 µM
[25] = second compound 3.16 µM, first compound 0.0316 µM
[26] = second compound 3.16 µM, first compound 0.1 µM
[27] = second compound 3.16 µM, first compound 0.316 µM
[28] = second compound 3.16 µM, first compound 1 µM
[29] = second compound 3.16 µM, first compound 3.16 µM
[30] = second compound 3.16 µM, first compound 10 µM
[31] = second compound 10 µM, first compound 0.0316 µM
[32] = second compound 10 µM, first compound 0.1 µM
[33] = second compound 10 µM, first compound 0.316 µM
[34] = second compound 10 µM, first compound 1 µM
[35] = second compound 10 µM, first compound 3.16 µM
[36] = second compound 10 µM, first compound 10 µM
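Note: spheroids exposed to compounds for seven days.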

IC50 (second compound 0.0316 µM): 877 nM
IC50 (second compound 0.1 µM): > 10000 nM
IC50 (second compound 0.316 µM): < 31.6 nM
IC50 (second compound 1 µM): < 31.6 nM
IC50 (second compound 3.16 µM): < 31.6 nM
IC50 (second compound 10 µM): < 31.6 nM
SMILES: O=c1[nH]cc(F)c(=O)[nH]1 + Cc1cnc(CNC(=O)c2c(=O)c3ccc(N4CCCN(C)CC4)nc3n3c2sc2ccccc23)cn1
viability, T/C [1]: 78.1%
viability, T/C [2]: 90.8%
viability, T/C [3]: 78.9%
viability, T/C [4]: 45.7%
viability, T/C [5]: 53.1%
viability, T/C [6]: 40%
viability, T/C [7]: 55.8%
viability, T/C [8]: 68.3%
viability, T/C [9]: 69.5%
viability, T/C [10]: 50.9%
viability, T/C [11]: 70.9%
viability, T/C [12]: 50.4%
viability, T/C [13]: 45.7%
viability, T/C [14]: 47.3%
viability, T/C [15]: 51.7%
viability, T/C [16]: 41.8%
viability, T/C [17]: 48.2%
viability, T/C [18]: 47%
viability, T/C [19]: 35.9%
viability, T/C [20]: 46.4%
viability, T/C [21]: 41.9%
viability, T/C [22]: 48.6%
viability, T/C [23]: 53.9%
viability, T/C [24]: 38.2%
viability, T/C [25]: 33.3%
viability, T/C [26]: 37%
viability, T/C [27]: 37.1%
viability, T/C [28]: 49.7%
viability, T/C [29]: 47.1%
viability, T/C [30]: 34%
viability, T/C [31]: 28.3%
viability, T/C [32]: 25.2%
viability, T/C [33]: 30.6%
viability, T/C [34]: 35.4%
viability, T/C [35]: 19.8%
viability, T/C [36]: 23.1%

SMILES: CC(C)n1c(=O)n(C)c2cnc3cc(F)c(-c4ccc(OCCCN5CCCCC5)nc4)cc3c21 + Cc1[nH]c2ccc(F)cc2c1-c1nc2c3cccnc3c3ncccc3c2[nH]1
IC50 (second compound 0.0316 µM): > 10000 nM
IC50 (second compound 0.1 µM): > 10000 nM
IC50 (second compound 0.316 µM): > 10000 nM
IC50 (second compound 1 µM): > 10000 nM
IC50 (second compound 3.16 µM): > 10000 nM
IC50 (second compound 10 µM): > 10000 nM
viability, T/C [1]: 108%
viability, T/C [2]: 96.1%
viability, T/C [3]: 126%
viability, T/C [4]: 110%
viability, T/C [5]: 122%
viability, T/C [6]: 87.5%
viability, T/C [7]: 92.1%
viability, T/C [8]: 129%
viability, T/C [9]: 110%
viability, T/C [10]: 116%
viability, T/C [11]: 157%
viability, T/C [12]: 91.7%
viability, T/C [13]: 87.1%
viability, T/C [14]: 100%
viability, T/C [15]: 100%
viability, T/C [16]: 96.6%
viability, T/C [17]: 125%
viability, T/C [18]: 146%
viability, T/C [19]: 104%
viability, T/C [20]: 107%
viability, T/C [21]: 101%
viability, T/C [22]: 99.1%
viability, T/C [23]: 134%
viability, T/C [24]: 107%
viability, T/C [25]: 78.6%
viability, T/C [26]: 89.2%
viability, T/C [27]: 79.9%
viability, T/C [28]: 99.4%
viability, T/C [29]: 99.1%
viability, T/C [30]: 83.3%
viability, T/C [31]: 71.9%
viability, T/C [32]: 73.4%
viability, T/C [33]: 71.1%
viability, T/C [34]: 96.3%
viability, T/C [35]: 79.4%
viability, T/C [36]: 72.1%

IC50 (second compound 0.0316 µM): 431 nM
IC50 (second compound 0.1 µM): 396 nM
IC50 (second compound 0.316 µM): < 31.6 nM
IC50 (second compound 1 µM): < 31.6 nM
IC50 (second compound 3.16 µM): < 31.6 nM
IC50 (second compound 10 µM): < 31.6 nM
SMILES: Nc1ccn(C2OC(CO)C(O)C2(F)F)c(=O)n1 (stereo unspecified) + Cc1cnc(CNC(=O)c2c(=O)c3ccc(N4CCCN(C)CC4)nc3n3c2sc2ccccc23)cn1
viability, T/C [1]: 68%
viability, T/C [2]: 64.8%
viability, T/C [3]: 58.6%
viability, T/C [4]: 26.7%
viability, T/C [5]: 28.4%
viability, T/C [6]: 22.3%
viability, T/C [7]: 52.5%
viability, T/C [8]: 54%
viability, T/C [9]: 56.3%
viability, T/C [10]: 32.5%
viability, T/C [11]: 27.2%
viability, T/C [12]: 20.9%
viability, T/C [13]: 45.8%
viability, T/C [14]: 45.6%
viability, T/C [15]: 38.3%
viability, T/C [16]: 36.9%
viability, T/C [17]: 32.2%
viability, T/C [18]: 17.6%
viability, T/C [19]: 40.7%
viability, T/C [20]: 43.5%
viability, T/C [21]: 39.7%
viability, T/C [22]: 41%
viability, T/C [23]: 31.8%
viability, T/C [24]: 16.2%
viability, T/C [25]: 41.3%
viability, T/C [26]: 43.1%
viability, T/C [27]: 32.3%
viability, T/C [28]: 36%
viability, T/C [29]: 33.8%
viability, T/C [30]: 12.2%
viability, T/C [31]: 29.4%
viability, T/C [32]: 19.3%
viability, T/C [33]: 28.6%
viability, T/C [34]: 19.8%
viability, T/C [35]: 0.34%
viability, T/C [36]: 0.27%
